System: MIA PaCa-2
[1] = OFD1 knockdown: no (no doxycycline)
[2] = OFD1 knockdown: yes (Tet-on shOFD1, 100 ng/mL doxycycline)

`O=c1[nH]c(=O)n(C2CCCO2)cc1F` (centres undefined) [S1300] showed an IC50 cell viability [1] of 48.4 µM and an IC50 cell viability [2] of 43.1 µM.
In the case of `CS(=O)(=O)N1CCN(Cc2cc3nc(-c4cccc5[nH]ncc45)nc(N4CCOCC4)c3s2)CC1` [S1065], the IC50 cell viability [1] is reported as 10.2 µM and the IC50 cell viability [2] is reported as 7.9 µM.
With `CC(=O)Nc1cccc(-n2c(=O)n(C3CC3)c(=O)c3c(Nc4ccc(I)cc4F)n(C)c(=O)c(C)c32)c1` [S2673] the IC50 cell viability [1] was 23.9 µM and the IC50 cell viability [2] was 21.9 µM.
`Cc1nc(=O)c2cc(CN(C)c3ccc(C(=O)N[C@@H](CCC(=O)O)C(=O)O)s3)ccc2[nH]1` [S1192] was tested, and the IC50 cell viability [1] was 15.8 µM and the IC50 cell viability [2] was 14.1 µM.
In the case of `Cc1nc(Nc2ncc(C(=O)Nc3c(C)cccc3Cl)s2)cc(N2CCN(CCO)CC2)n1` [S1021], the IC50 cell viability [1] is reported as 0.81 µM and the IC50 cell viability [2] is reported as 0.61 µM.
For `COCCCOc1cc(C[C@@H](C[C@H](N)[C@@H](O)C[C@H](C(=O)NCC(C)(C)C(N)=O)C(C)C)C(C)C)ccc1OC` [S2199], the IC50 cell viability [1] was 4.3 µM and the IC50 cell viability [2] was 3.52 µM.
In the case of `CN1CCN(CCOc2cc(OC3CCOCC3)c3c(Nc4c(Cl)ccc5c4OCO5)ncnc3c2)CC1` [S1006], the IC50 cell viability [1] is reported as 7.48 µM and the IC50 cell viability [2] is reported as 8.13 µM.
In the case of `CN(C)CCOc1ccc(/C(=C(/CCCl)c2ccccc2)c2ccccc2)cc1` [S1776], the IC50 cell viability [1] is reported as 47.6 µM and the IC50 cell viability [2] is reported as 46.9 µM.
Compound `CC(C)C(=O)Nc1ccc([N+](=O)[O-])c(C(F)(F)F)c1` [S1908] has an IC50 cell viability [1] of 2.71 µM and an IC50 cell viability [2] of 2.5 µM.
For `O=C(O)CCCc1ccc(N(CCCl)CCCl)cc1` [S4288], the IC50 cell viability [1] was 21.7 µM and the IC50 cell viability [2] was 19.3 µM.
Compound `O=P1(N(CCCl)CCCl)NCCCO1` (centres undefined) [S2057] has an IC50 cell viability [1] of 20.3 µM and an IC50 cell viability [2] of 18.6 µM.
In the case of `CC[C@@H]1C(=O)N(C)c2cnc(Nc3ccc(C(=O)N[C@H]4CC[C@H](N5CCN(CC6CC6)CC5)CC4)cc3OC)nc2N1C(C)C` [S2235], the IC50 cell viability [1] is reported as 13.3 µM and the IC50 cell viability [2] is reported as 12.1 µM.
`COc1cc(Nc2c(C#N)cnc3cc(OCCCN4CCN(C)CC4)c(OC)cc23)c(Cl)cc1Cl` [S1014] gave an IC50 cell viability [1] of 6.31 µM and an IC50 cell viability [2] of 6.07 µM.
In the case of `COc1cc2c(Oc3ccc4[nH]c(C)cc4c3F)ncnc2cc1OCCCN1CCCC1` [S1017], the IC50 cell viability [1] is reported as 13.1 µM and the IC50 cell viability [2] is reported as 13.5 µM.
`COc1cc2nc(N3CCN(C(=O)C4COc5ccccc5O4)CC3)nc(N)c2cc1OC` (centres undefined) [S1324] showed an IC50 cell viability [1] of 18.1 µM and an IC50 cell viability [2] of 17.6 µM.
`C=CCNC1=C2C[C@@H](C)C[C@H](OC)[C@H](O)[C@@H](C)/C=C(\C)[C@H](OC(N)=O)[C@@H](OC)/C=C\C=C(/C)C(=O)NC(=CC1=O)C2=O` [S1141] gave an IC50 cell viability [1] of 1.07 µM and an IC50 cell viability [2] of 0.75 µM.
In the case of `COc1cccc2c1C(=O)c1c(O)c3c(c(O)c1C2=O)C[C@@](O)(C(=O)CO)C[C@@H]3O[C@H]1C[C@H](N)[C@@H](O)[C@H](C)O1` [S1223], the IC50 cell viability [1] is reported as 0.63 µM and the IC50 cell viability [2] is reported as 0.58 µM.
With `O=C(c1ccc(OCCN2CCCCC2)cc1)c1c(-c2ccc(O)cc2)sc2cc(O)ccc12` [S1227] the IC50 cell viability [1] was 8.3 µM and the IC50 cell viability [2] was 8.74 µM.
With `COc1cc2ncnc(Nc3ccc(F)c(Cl)c3)c2cc1OCCCN1CCOCC1` [S1025] the IC50 cell viability [1] was 2.22 µM and the IC50 cell viability [2] was 1.71 µM.
For `CNC(=O)c1cc(Oc2ccc(NC(=O)Nc3ccc(Cl)c(C(F)(F)F)c3)c(F)c2)ccn1` [S1178], the IC50 cell viability [1] was 1.56 µM and the IC50 cell viability [2] was 1.28 µM.
For `CCC1(c2ccc(N)cc2)CCC(=O)NC1=O` (centres undefined) [S1672], the IC50 cell viability [1] was 23.6 µM and the IC50 cell viability [2] was 22.2 µM.
Compound `C[C@@H](Oc1cc(-c2cnn(C3CCNCC3)c2)cnc1N)c1c(Cl)ccc(F)c1Cl` [S1068] has an IC50 cell viability [1] of 1.73 µM and an IC50 cell viability [2] of 1.39 µM.
`CN(C)C/C=C/C(=O)Nc1cc2c(Nc3ccc(F)c(Cl)c3)ncnc2cc1O[C@H]1CCOC1` [S1011] was tested, and the IC50 cell viability [1] was 66.1 µM and the IC50 cell viability [2] was 87.7 µM.
`O=C(/C=C/c1cccc(S(=O)(=O)Nc2ccccc2)c1)NO` [S1085] was tested, and the IC50 cell viability [1] was 3.67 µM and the IC50 cell viability [2] was 3.5 µM.
For `CN1CCN(C2=Nc3cc(Cl)ccc3Nc3ccccc32)CC1` [S2459], the IC50 cell viability [1] was 18.9 µM and the IC50 cell viability [2] was 18 µM.
Compound `CC(C)c1cc(-c2n[nH]c(=O)n2-c2ccc3c(ccn3C)c2)c(O)cc1O` [S1159] has an IC50 cell viability [1] of 2.42 µM and an IC50 cell viability [2] of 2.01 µM.
Work on `CC(C)(C)NCC(O)c1ccc(O)c(CO)c1` (centres undefined) [S2507] yielded an IC50 cell viability [1] of 4.57 µM and an IC50 cell viability [2] of 4.1 µM.
For `C=C1C[C@@H]2[C@H](CC[C@]3(C)C(=O)CC[C@@H]23)[C@@]2(C)C=CC(=O)C=C12` [S1196], the IC50 cell viability [1] was 53.5 µM and the IC50 cell viability [2] was 50.2 µM.
`CNC(=O)c1ccc(N2C(=S)N(c3ccc(C#N)c(C(F)(F)F)c3)C(=O)C2(C)C)cc1F` [S1250] was tested, and the IC50 cell viability [1] was 29.5 µM and the IC50 cell viability [2] was 27.8 µM.
`CC(=O)c1c(C)c2cnc(Nc3ccc(N4CCNCC4)cn3)nc2n(C2CCCC2)c1=O` [S1116] showed an IC50 cell viability [1] of 43.1 µM and an IC50 cell viability [2] of 46.4 µM.
With `Cc1c(C(=O)NN2CCCCC2)nn(-c2ccc(Cl)cc2Cl)c1-c1ccc(Cl)cc1` [S3021] the IC50 cell viability [1] was 19 µM and the IC50 cell viability [2] was 17.7 µM.
Work on `Cc1ccc(O)c([C@H](CCN(C(C)C)C(C)C)c2ccccc2)c1` [S2550] yielded an IC50 cell viability [1] of 10.2 µM and an IC50 cell viability [2] of 9.8 µM.
Work on `Cc1ccc(C(=O)N(CCCN)[C@@H](c2nc3cc(Cl)ccc3c(=O)n2Cc2ccccc2)C(C)C)cc1` [S1452] yielded an IC50 cell viability [1] of 1.44 µM and an IC50 cell viability [2] of 1.4 µM.
Work on `CN(C)c1nc(N(C)C)nc(N(C)C)n1` [S1278] yielded an IC50 cell viability [1] of 2.56 µM and an IC50 cell viability [2] of 2.43 µM.
For `C[C@@H]1CCN(C(=O)CC#N)C[C@@H]1N(C)c1ncnc2[nH]ccc12` [S2789], the IC50 cell viability [1] was 2.19 µM and the IC50 cell viability [2] was 2.38 µM.
In the case of `C#Cc1cccc(Nc2ncnc3cc(OCCOC)c(OCCOC)cc23)c1` [S1023], the IC50 cell viability [1] is reported as 59.1 µM and the IC50 cell viability [2] is reported as 65.3 µM.
For `COc1cc2nccc(Oc3ccc(NC(=O)Nc4cc(C)on4)c(Cl)c3)c2cc1OC` [S1207], the IC50 cell viability [1] was 10 µM and the IC50 cell viability [2] was 7.5 µM.
`Cc1cc(Nc2cc(N3CCN(C)CC3)nc(Sc3ccc(NC(=O)C4CC4)cc3)n2)n[nH]1` [S1048] showed an IC50 cell viability [1] of 22.9 µM and an IC50 cell viability [2] of 22.7 µM.
In the case of `COc1cc2/c(=N/c3ccc(Br)cc3F)nc[nH]c2cc1OCC1CCN(C)CC1` [S1046], the IC50 cell viability [1] is reported as 5.87 µM and the IC50 cell viability [2] is reported as 5.04 µM.
`CC[C@]1(O)C[C@H]2CN(CCc3c([nH]c4ccccc34)[C@@](C(=O)OC)(c3cc4c(cc3OC)N(C=O)[C@H]3[C@@](O)(C(=O)OC)[C@H](OC(C)=O)[C@]5(CC)C=CCN6CC[C@]43[C@@H]65)C2)C1` [S1241] showed an IC50 cell viability [1] of 20.9 µM and an IC50 cell viability [2] of 21.3 µM.
`O=S(=O)(O)CCSSCCS(=O)(=O)O` [S1201] showed an IC50 cell viability [1] of 82.1 µM and an IC50 cell viability [2] of 70.3 µM.
With `NC(=O)NO` [S1896] the IC50 cell viability [1] was 4.41 µM and the IC50 cell viability [2] was 4.33 µM.
For `CCc1c2c(nc3ccc(OC(=O)N4CCC(N5CCCCC5)CC4)cc13)-c1cc3c(c(=O)n1C2)COC(=O)[C@]3(O)CC` [S2217], the IC50 cell viability [1] was 43.2 µM and the IC50 cell viability [2] was 47.2 µM.
`CN(Cc1cnc2nc(N)nc(N)c2n1)c1ccc(C(=O)N[C@@H](CCC(=O)O)C(=O)O)cc1` [S1210] gave an IC50 cell viability [1] of 0.47 µM and an IC50 cell viability [2] of 0.39 µM.
With `C[C@]12CC[C@@H]3c4ccc(O)cc4CC[C@H]3[C@@H]1CCC2=O` [S1665] the IC50 cell viability [1] was 38.1 µM and the IC50 cell viability [2] was 37.8 µM.
With `CN(CCOc1ccc(CC2SC(=O)NC2=O)cc1)c1ccccn1` (centres undefined) [S2556] the IC50 cell viability [1] was 8.62 µM and the IC50 cell viability [2] was 7.63 µM.
Work on `Nc1ccn([C@@H]2O[C@H](CO)[C@@H](O)C2(F)F)c(=O)n1` [S1714] yielded an IC50 cell viability [1] of 3.36 µM and an IC50 cell viability [2] of 3.16 µM.

— the supplement of paper PMC12325586
